Results as given in patent publication US20060062729A1, “Enhanced ligand binding to neurotensin receptors” (priority 2004, published 2006).
“And” between values parts separate entries of the source, which are not always exact repeats. Identical values can stand only once. Like-named read-outs stand apart in the source and are kept apart here.

Target: NTR1 (Homo sapiens, UniProt P30989)
Experiment: ^125I-NT binding to PC3 cells
[1] = general reducing agents and antioxidants
[2] = read-out: NT Binding EC50, [agent] giving 75% increase in NT binding
[3] = 6 μM enzyme inhibitor, PC3 cells
[4] = 20 μM enzyme inhibitor, PC3 cells
[5] = 60 μM enzyme inhibitor, PC3 cells
[6] = vitamin-like antioxidants at 20-180 μM, n=3

Chain of NTR1 (P30989 whole entry): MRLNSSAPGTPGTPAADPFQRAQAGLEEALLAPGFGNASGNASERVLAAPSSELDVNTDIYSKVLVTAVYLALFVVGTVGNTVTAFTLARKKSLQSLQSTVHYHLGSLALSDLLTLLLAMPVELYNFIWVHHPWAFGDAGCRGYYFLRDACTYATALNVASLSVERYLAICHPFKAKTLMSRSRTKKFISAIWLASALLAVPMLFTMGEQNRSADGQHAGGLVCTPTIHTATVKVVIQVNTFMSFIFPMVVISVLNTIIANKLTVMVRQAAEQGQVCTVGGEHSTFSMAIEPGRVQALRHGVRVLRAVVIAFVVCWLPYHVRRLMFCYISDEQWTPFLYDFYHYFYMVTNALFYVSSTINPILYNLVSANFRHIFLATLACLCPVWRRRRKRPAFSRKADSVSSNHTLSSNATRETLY

Question: For `O[C@H](CS)[C@H](O)CS` (racemic) [DTT, dithiothreitol], which “effect on NT binding” value [1] is on record?
Answer: Its value is “not much affected”.

Question: How did the “effect on NT binding” value (used at 10-100 μM, n=3) turn out when `Oc1cc(O)c2c(c1)O[C@H](c1ccc(O)c(O)c1)[C@@H](O)C2` [(+)-catechin] was run?
Answer: The value was “without effect”.

Question: How did the “effect on NT binding” value (chelation of intracellular Ca^2+, 50 μM BAPTA-AM) turn out when `CC(=O)OCOC(=O)CN(CC(=O)OCOC(C)=O)c1ccccc1OCCOc1ccccc1N(CC(=O)OCOC(C)=O)CC(=O)OCOC(C)=O` [BAPTA-AM, 1,2-bis(o-aminophenoxy)ethane-N,N,N′,N′-tetraacetic acid tetra(acetoxymethyl) ester] was run?
Answer: Its value is “nor was NT binding altered”.

Question: `COc1ccc(O)c(C(C)(C)C)c1` [BHA, butylated hydroxy anisole] was tested. Which EC50 [2] did it give?
Answer: Its EC50 is 110 µM.

Question: How did the EC50 [2] turn out when `COC(=O)C1=C(C)NC(C)=C([N+](=O)[O-])C1c1ccccc1C(F)(F)F` (stereo not drawn) [BayK-8644] was run?
Answer: The EC50 was 16 µM.

Question: Which EC50 does the source give for `N#CC(C#N)=NNc1cccc(Cl)c1` [CCCP, Carbonyl cyanide 3-chlorophenylhydrozone] here?
Answer: The EC50 was 23 µM.

Question: `COc1ccc([C@@H]2Sc3ccccc3N(CCN(C)C)C(=O)[C@@H]2OC(C)=O)cc1` [Diltiazem, diltiazem] was tested. Which “maximal increase in NT binding to PC3 cells” value (as much as / up to, dose-response) did it give?
Answer: Its value is no more than 1.4 fold.

Question: Which EC50 [2] does the source give for `COC(=O)c1c(C)[nH]c(C)c1C(=O)c1ccccc1Cc1ccccc1` [FPL-64176] here?
Answer: Its EC50 is 29 µM.

Question: For `CCCc1c(OCCCCc2nnn[nH]2)ccc(C(C)=O)c1O` [LY171883], which “NT Binding Efficacy % increase” value (LOX blockers) is on record?
Answer: The value was 157 % increase.

Question: And the EC50 (read-out: NT Binding EC50, [agent] giving 100% increase in NT binding)?
Answer: The EC50 was 34 µM.

Question: For `CC(=O)N[C@@H](CS)C(=O)O` [N-acetyl cysteine], which “effect on NT binding” value (used at 1-3 mM, n=3) is on record?
Answer: Its value is “without effect”.

Question: `C[S+]([O-])c1ccc(-c2nc(-c3ccncc3)c(-c3ccc(F)cc3)[nH]2)cc1` (stereo not drawn) [SB203580] was tested. Which “Specific NT-Binding (% control)” value [3] did it give?
Answer: Its value is 108 ± 8 % control.

Question: And the “Specific NT-Binding (% control)” value [4]?
Answer: The value was 116 ± 7 % control.

Question: And the “Specific NT-Binding (% control)” value [5]?
Answer: The value was 125 ± 9 % control.

Question: With `N#CC(=C(/N)Sc1ccccc1N)/C(C#N)=C(\N)Sc1ccccc1N` [U0126] as the molecule, how does the “Specific NT-Binding (% control)” value read?
Answer: The value was 118 ± 6 % control and 108 ± 6 % control and 120 ± 9 % control.

Question: How did the “effect on NT binding” value [1] turn out when `O=C1O[C@H]([C@@H](O)CO)C(O)=C1O` [ascorbic acid] was run?
Answer: The value was “not much affected”.

Question: And the “effect on NT binding” value [6]?
Answer: The value was “ineffective”.

Question: `O=c1oc2c(O)c(O)cc3c(=O)oc4c(O)c(O)cc1c4c23` [ellagic acid] was tested. Which “effect on NT binding” value (used at 10-100 μM, n=3) did it give?
Answer: Its value is “without effect”.

Question: Which “effect on NT binding” value (less specific CCBs) does the source give for `Fc1ccc(C(c2ccc(F)cc2)N2CCN(C/C=C/c3ccccc3)CC2)cc1` [flunarizine] here?
Answer: Its value is “only modest effects”.

Question: With `N[C@@H](CCC(=O)N[C@@H](CS)C(=O)NCC(=O)O)C(=O)O` [glutathione] as the molecule, how does the “effect on NT binding” value (used at 1-3 mM, n=3) read?
Answer: The value was “without effect”.

Question: How did the “Specific NT-Binding (% control)” value [3] turn out when `COc1ccc2c(c1)c(CC(=O)O)c(C)n2C(=O)c1ccc(Cl)cc1` [indomethacin] was run?
Answer: Its value is 109 ± 4 % control.

Question: What about the “Specific NT-Binding (% control)” value [4] of the same molecule?
Answer: Its value is 95 ± 6 % control.

Question: What about the “Specific NT-Binding (% control)” value [5] of the same molecule?
Answer: Its value is 113 ± 7 % control.

Question: For `Cc1ncc(CO)c(CO)c1O` [pyridoxine], which “effect on NT binding” value [1] is on record?
Answer: Its value is “not much affected”.

Question: What about the “effect on NT binding” value [6] of the same molecule?
Answer: The value was “ineffective”.

Question: `Cc1cc2nc3c(=O)[nH]c(=O)nc-3n(C[C@H](O)[C@H](O)[C@H](O)CO)c2cc1C` [riboflavin] was tested. Which “effect on NT binding” value [1] did it give?
Answer: The value was “not much affected”.

Question: What about the “effect on NT binding” value [6] of the same molecule?
Answer: The value was “ineffective”.

Question: `C=C(C)[C@H]1Cc2c(ccc3c2O[C@@H]2COc4cc(OC)c(OC)cc4[C@@H]2C3=O)O1` [rotenone] was tested. Which EC50 did it give?
Answer: Its EC50 is 38 µM.

Question: How did the “effect on NT binding” value [1] turn out when `[BH4-].[Na+]` [sodium borohydride] was run?
Answer: Its value is “not much affected”.

Question: What about the “effect on NT binding” value (used at 1-3 mM, n=3) of the same molecule?
Answer: Its value is “without effect”.

Question: What does the source list for `Cc1ncc(C[n+]2csc(CCO)c2C)c(N)n1` [thiamine]?
Answer: effect on NT binding [1]: not much affected; effect on NT binding [6]: ineffective

Question: Which “effect on NT binding” value (less specific CCBs) does the source give for `CN1CCN(CCCN2c3ccccc3Sc3ccc(C(F)(F)F)cc32)CC1` [trifluoperazine] here?
Answer: The value was “only modest effects”.
